Drawing on patent publication US12172995B2, “Substituted indole and indazole compounds” (BRISTOL-MYERS SQUIBB COMPANY, priority 2018, dated 2024), this text covers IC50 for 13 compounds.

pIC50: −log10 of the molar value.

Type in all cases: cell-based
The target of one test is T1, human TLR7 (Homo sapiens, UniProt Q9NYK1).
T1 construct: host or cells: HEK-Blue cells
T1 sequence (Q9NYK1 27-1049): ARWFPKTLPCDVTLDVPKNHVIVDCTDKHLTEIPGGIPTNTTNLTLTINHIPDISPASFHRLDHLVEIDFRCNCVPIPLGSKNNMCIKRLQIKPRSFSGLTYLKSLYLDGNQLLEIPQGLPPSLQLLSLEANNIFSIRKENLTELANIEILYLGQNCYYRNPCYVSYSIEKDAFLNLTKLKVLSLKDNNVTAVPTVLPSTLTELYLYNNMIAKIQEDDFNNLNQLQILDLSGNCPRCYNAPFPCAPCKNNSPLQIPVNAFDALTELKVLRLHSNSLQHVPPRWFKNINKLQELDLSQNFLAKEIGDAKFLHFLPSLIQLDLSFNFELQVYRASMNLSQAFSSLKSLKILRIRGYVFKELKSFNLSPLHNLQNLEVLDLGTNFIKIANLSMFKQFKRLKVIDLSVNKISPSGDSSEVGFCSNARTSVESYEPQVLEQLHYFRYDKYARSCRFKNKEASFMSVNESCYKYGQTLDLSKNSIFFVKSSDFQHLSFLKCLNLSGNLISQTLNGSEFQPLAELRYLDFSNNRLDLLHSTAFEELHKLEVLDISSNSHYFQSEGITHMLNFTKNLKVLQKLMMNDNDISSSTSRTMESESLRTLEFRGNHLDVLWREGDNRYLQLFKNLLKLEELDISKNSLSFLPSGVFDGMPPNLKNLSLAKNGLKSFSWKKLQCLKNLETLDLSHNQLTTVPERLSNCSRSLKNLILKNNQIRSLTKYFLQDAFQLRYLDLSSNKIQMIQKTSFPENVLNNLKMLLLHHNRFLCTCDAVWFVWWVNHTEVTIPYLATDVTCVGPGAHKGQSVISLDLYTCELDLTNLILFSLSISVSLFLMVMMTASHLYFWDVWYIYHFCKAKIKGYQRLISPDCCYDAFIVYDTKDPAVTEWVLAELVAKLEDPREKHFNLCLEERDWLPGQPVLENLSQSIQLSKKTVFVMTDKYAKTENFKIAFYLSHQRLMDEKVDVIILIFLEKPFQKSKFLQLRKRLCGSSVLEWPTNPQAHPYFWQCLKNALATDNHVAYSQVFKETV
Description: TLR7 inhibition reporter assay (HEK-Blue SEAP). To be noted: HEK-Blue cells overexpressing human TLR7, stimulated with gardiquimod 7.5 μM, 22 hour incubation. In a few lines: (§1)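 Percent inhibition reflects SEAP reduction after 22 h at 37° C, relative to agonist-plus-DMSO and known-inhibitor controls. Compounds (0.05 nM to 50 μM) were added 30 min before agonist: TLR9 cells received ODN2006 5 nM, TLR8 cells R848 15.9 μM, TLR7 cells gardiquimod 7.5 μM; human receptor-expressing HEK-Blue reporter lines.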

A further test has as its target T2, human TLR8 (Homo sapiens, UniProt Q9NR97).
T2 construct: host or cells: HEK-Blue cells
T2 sequence (Q9NR97 27-1041): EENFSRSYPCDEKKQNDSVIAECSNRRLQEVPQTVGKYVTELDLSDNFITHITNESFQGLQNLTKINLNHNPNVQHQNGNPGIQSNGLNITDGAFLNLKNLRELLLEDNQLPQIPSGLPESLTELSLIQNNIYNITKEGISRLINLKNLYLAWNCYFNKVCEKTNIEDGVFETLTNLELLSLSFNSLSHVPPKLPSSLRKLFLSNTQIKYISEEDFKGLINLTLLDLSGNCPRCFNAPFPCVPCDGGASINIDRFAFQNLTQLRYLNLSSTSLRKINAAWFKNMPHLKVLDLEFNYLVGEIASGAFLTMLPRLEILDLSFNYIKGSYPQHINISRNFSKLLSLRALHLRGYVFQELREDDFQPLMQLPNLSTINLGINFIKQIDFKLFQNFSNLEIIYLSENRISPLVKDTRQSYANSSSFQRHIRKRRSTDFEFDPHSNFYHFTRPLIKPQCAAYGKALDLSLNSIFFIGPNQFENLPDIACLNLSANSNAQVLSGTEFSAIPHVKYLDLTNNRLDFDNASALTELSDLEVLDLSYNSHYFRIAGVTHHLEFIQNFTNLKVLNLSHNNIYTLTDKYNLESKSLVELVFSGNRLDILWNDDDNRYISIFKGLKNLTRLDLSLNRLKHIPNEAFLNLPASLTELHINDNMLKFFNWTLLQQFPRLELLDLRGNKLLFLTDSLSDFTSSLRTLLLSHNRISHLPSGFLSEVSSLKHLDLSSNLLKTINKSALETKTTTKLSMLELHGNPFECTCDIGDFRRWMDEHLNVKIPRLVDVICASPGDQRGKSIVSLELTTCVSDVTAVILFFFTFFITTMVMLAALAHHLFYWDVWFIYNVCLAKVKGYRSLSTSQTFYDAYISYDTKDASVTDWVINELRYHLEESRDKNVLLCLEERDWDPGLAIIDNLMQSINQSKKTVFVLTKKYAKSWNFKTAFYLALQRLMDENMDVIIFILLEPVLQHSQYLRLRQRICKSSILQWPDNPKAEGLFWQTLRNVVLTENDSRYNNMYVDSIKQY
Description: TLR8 inhibition reporter assay (HEK-Blue SEAP). The settings on record: HEK-Blue cells overexpressing human TLR8, stimulated with R848 15.9 μM, 22 hour incubation. The method in brief: as §1

The target of another test is T3, human TLR9 (Homo sapiens, UniProt Q9NR96).
T3 construct: host or cells: HEK-Blue cells
T3 sequence (Q9NR96 26-1032): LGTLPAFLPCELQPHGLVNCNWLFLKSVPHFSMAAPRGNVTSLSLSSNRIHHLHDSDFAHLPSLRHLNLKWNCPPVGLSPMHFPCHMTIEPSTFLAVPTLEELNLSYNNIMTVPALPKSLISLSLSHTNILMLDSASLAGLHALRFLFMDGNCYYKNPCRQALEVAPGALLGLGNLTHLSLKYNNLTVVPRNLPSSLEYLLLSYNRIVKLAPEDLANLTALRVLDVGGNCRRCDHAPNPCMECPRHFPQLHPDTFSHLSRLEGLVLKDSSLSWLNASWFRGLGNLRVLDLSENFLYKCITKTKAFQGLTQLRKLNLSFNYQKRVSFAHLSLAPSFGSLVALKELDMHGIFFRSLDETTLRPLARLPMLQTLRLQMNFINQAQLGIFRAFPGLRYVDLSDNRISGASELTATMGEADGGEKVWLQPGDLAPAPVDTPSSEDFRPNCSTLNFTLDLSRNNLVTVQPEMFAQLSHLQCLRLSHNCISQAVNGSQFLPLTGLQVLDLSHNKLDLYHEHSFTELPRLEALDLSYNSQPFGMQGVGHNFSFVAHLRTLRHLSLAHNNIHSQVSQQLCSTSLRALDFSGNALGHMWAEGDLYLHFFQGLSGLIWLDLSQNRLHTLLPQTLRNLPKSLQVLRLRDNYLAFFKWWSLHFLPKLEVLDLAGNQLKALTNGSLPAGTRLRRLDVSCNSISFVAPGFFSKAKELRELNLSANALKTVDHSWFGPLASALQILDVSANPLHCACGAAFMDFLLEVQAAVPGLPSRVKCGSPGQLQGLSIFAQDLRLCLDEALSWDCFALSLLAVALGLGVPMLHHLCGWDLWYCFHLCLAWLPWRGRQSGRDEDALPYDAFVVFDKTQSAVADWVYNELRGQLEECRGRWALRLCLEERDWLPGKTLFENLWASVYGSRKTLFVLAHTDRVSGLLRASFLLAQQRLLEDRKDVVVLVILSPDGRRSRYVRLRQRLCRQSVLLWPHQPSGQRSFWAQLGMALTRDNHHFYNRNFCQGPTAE
Description: TLR9 inhibition reporter assay (HEK-Blue SEAP). To be noted: HEK-Blue cells overexpressing human TLR9, stimulated with ODN2006 5 nM, 22 hour incubation. The method in brief:
as §1

As for `Cc1cc(-c2cc3[nH]nc(C4CCC(N(C)C)CC4)c3cc2C(C)C)cn2ncnc12` (stereo not drawn) [Example 115, 4-(5-isopropyl-6-(8-methyl-[1,2,4]triazolo[1,5-a]pyridin-6-yl)-1H-indazol-3-yl)-N,N-dimethylcyclohexan-1-amine], the figures for the pIC50 against human TLR7, against human TLR8 and against human TLR9 were 9.22, 10.00 and 5.17, respectively.
The like results for `Cc1cc2c(C3CCNCC3)n[nH]c2cc1-c1cc(-c2cncnc2)c2ncnn2c1` [Example 85, 6-(5-methyl-3-(piperidin-4-yl)-1H-indazol-6-yl)-8-(pyrimidin-5-yl)-[1,2,4]triazolo[1,5-a]pyridine] were, in that order, 7.48, 8.82 and 5.41.
With `Cc1cc(-c2cc3[nH]nc(C4CCC(N5CCCC5)CC4)c3cc2C(C)C)cn2ncnc12` (single isomer, unassigned) [Example 131, 6-(5-isopropyl-3-(4-(pyrrolidin-1-yl)cyclohexyl)-1H-indazol-6-yl)-8-methyl-[1,2,4]triazolo[1,5-a]pyridine], the negative-log IC50 (pIC50) at human TLR7 is 8.70; at human TLR8, 9.52; against human TLR9, 5.34.
Turning to `Cc1cc(-c2cc(C)c3ncnn3c2)cc2[nH]nc(C3CCNCC3)c12` [Example 27, 8-methyl-6-(4-methyl-3-(piperidin-4-yl)-1H-indazol-6-yl)-[1,2,4]triazolo[1,5-a]pyridine], the figures for the pIC50 on human TLR7, at human TLR8 and on human TLR9 were 8.18, 7.59 and 6.19, respectively.
Consider `Cc1cc2c(NCCN3CCCC3)n[nH]c2cc1-c1cc(C)c2ncnn2c1` [Example 204, 5-methyl-6-(8-methyl-[1,2,4]triazolo[1,5-a]pyridin-6-yl)-N-(2-(pyrrolidin-1-yl)ethyl)-1H-indazol-3-amine], for which the pIC50 on human TLR7 is 7.07; at human TLR8, 8.72; against human TLR9 it was 5.60.
The like results for `Cc1cc2c(C3CNC3)n[nH]c2cc1-c1cc(C)c2ncnn2c1` [Example 49, 6-(3-(azetidin-3-yl)-5-methyl-1H-indazol-6-yl)-8-methyl-[1,2,4]triazolo[1,5-a]pyridine] were, in that order, 6.76, 7.82 and 5.72.
Taken in the same sequence, the figures for `CCc1cc(-c2cc(C)c3ncnn3c2)cc2[nH]nc(C3CCN(C(=O)CN(C)C)CC3)c12` [Example 110, 2-(dimethylamino)-1-(4-(4-ethyl-6-(8-methyl-[1,2,4]triazolo[1,5-a]pyridin-6-yl)-1H-indazol-3-yl)piperidin-1-yl)ethan-1-one] were 8.62, 8.74 and 5.41.
Taken in the same sequence, the figures for `Cc1cc(-c2cc3[nH]nc(C4CCC(N5CCC(C)(O)C5)CC4)c3cc2C(C)C)cn2ncnc12` (single isomer, unassigned) [Example 166, 1-(4-(5-isopropyl-6-(8-methyl-[1,2,4]triazolo[1,5-a]pyridin-6-yl)-1H-indazol-3-yl)cyclohexyl)-3-methylpyrrolidin-3-ol] were 8.38, 9.70 and 5.05.
As to `Cc1cc(-c2cc3[nH]nc(C4CCC(N5CCC(F)C5)CC4)c3cc2C(C)C)cn2ncnc12` (stereo not drawn) [Example 164, 6-(3-(4-(3-fluoropyrrolidin-1-yl)cyclohexyl)-5-isopropyl-1H-indazol-6-yl)-8-methyl-[1,2,4] triazolo[1,5-a]pyridine], the pIC50 on human TLR7 was 8.82; at human TLR8, 10.00; at human TLR9, 5.19.
Taken in the same sequence, the figures for `CCc1cc(-c2cc(C)c3ncnn3c2)cc2[nH]nc(C3CCNCC3)c12` [Example 109, 6-(4-ethyl-3-(piperidin-4-yl)-1H-indazol-6-yl)-8-methyl-[1,2,4]triazolo[1,5-a]pyridine] were 8.70, 8.59 and 5.79.
The like results for `Cc1cc(-c2cc3[nH]nc(C4CCC(N5CC(F)C5)CC4)c3cc2C(C)C)cn2ncnc12` (stereo not drawn) [Example 151, 6-(3-(4-(3-fluoroazetidin-1-yl)cyclohexyl)-5-isopropyl-1H-indazol-6-yl)-8-methyl-[1,2,4]triazolo[1,5-a]pyridine] were, in that order, 8.85, 9.22 and 5.08.
Taken in the same sequence, the figures for `Cc1cc(-c2cc(C)c3ncnn3c2)cc2[nH]nc(C3CCN(C)CC3)c12` [Example 79, 8-methyl-6-(4-methyl-3-(1-methylpiperidin-4-yl)-1H-indazol-6-yl)-[1,2,4]triazolo[1,5-a]pyridine] were 7.99, 7.27 and 5.22.
With `Cc1cc2c(C3CCC(NC(C)C)CC3)n[nH]c2cc1-c1cc(C)c2ncnn2c1` (single isomer, unassigned) [Example 38, N-isopropyl-4-(5-methyl-6-(8-methyl-[1,2,4]triazolo[1,5-a]pyridin-6-yl)-1H-indazol-3-yl)cyclohexan-1-amine], the negative-log IC50 (pIC50) on human TLR7 is 8.22; against human TLR8 it was 10.00; on human TLR9, no more than 4.30.
